Laboratory results taken from the NIST ThermoML archive (doi:10.1016/j.jct.2018.10.015).

Assays:
[1] = 101.3 kPa, Liquid; for viscosity: Concentric cylinders viscometry; for mass density: Vibrating tube method
[2] = xn = mol fraction of the nth substance listed; settings: 101.3 kPa, Liquid, x2 = 0; for viscosity: Concentric cylinders viscometry; for mass density: Vibrating tube method

CCCCn1cc[n+](C)c1C.O=S(=O)([N-]S(=O)(=O)C(F)(F)F)C(F)(F)F
[1]
Settings | mass density [kg/m3] | viscosity [mPa·s]
293.15 K | 1423.1 | 133.6
298.15 K | 1418.5 | 101.82
303.15 K | 1413.9 | 79.23
308.15 K | 1409.3 | 62.74
313.15 K | 1404.8 | 50.56
318.15 K | 1400.2 | 41.38
323.15 K | 1395.6 | 34.32
328.15 K | 1391 | 28.91

CCn1cc[n+](C)c1C.O=S(=O)([N-]S(=O)(=O)C(F)(F)F)C(F)(F)F
[1]
Settings | mass density [kg/m3] | viscosity [mPa·s]
293.15 K | 1495.8 | 89.88
298.15 K | 1491 | 71.34
303.15 K | 1486.3 | 57.64
308.15 K | 1481.5 | 47.26
313.15 K | 1476.7 | 39.24
318.15 K | 1472 | 33
323.15 K | 1467.2 | 28.05
328.15 K | 1462.4 | 24.16

CCOC(=O)OCC [diethyl carbonate]
[1]
Settings | mass density [kg/m3] | viscosity [mPa·s]
293.15 K | 974.9 | 0.805
298.15 K | 969.3 | 0.751
303.15 K | 963.7 | 0.702
308.15 K | 958 | 0.659
313.15 K | 952.4 | 0.62
318.15 K | 946.7 | 0.584
323.15 K | 940.9 | 0.552
328.15 K | 935.2 | 0.523

CCOC(=O)OCC [diethyl carbonate] + CCCCn1cc[n+](C)c1C.O=S(=O)([N-]S(=O)(=O)C(F)(F)F)C(F)(F)F
[2]
Settings | mass density [kg/m3] | viscosity [mPa·s]
293.15 K | 974.9 | 0.805
298.15 K | 969.3 | 0.751
303.15 K | 963.7 | 0.702
308.15 K | 958 | 0.659
313.15 K | 952.4 | 0.62
318.15 K | 946.7 | 0.584
323.15 K | 940.9 | 0.552
328.15 K | 935.2 | 0.523

CCOC(=O)OCC [diethyl carbonate] + CCn1cc[n+](C)c1C.O=S(=O)([N-]S(=O)(=O)C(F)(F)F)C(F)(F)F
[2]
Settings | mass density [kg/m3] | viscosity [mPa·s]
293.15 K | 974.9 | 0.805
298.15 K | 969.3 | 0.751
303.15 K | 963.7 | 0.702
308.15 K | 958 | 0.659
313.15 K | 952.4 | 0.62
318.15 K | 946.7 | 0.584
323.15 K | 940.9 | 0.552
328.15 K | 935.2 | 0.523

COC(=O)OC [dimethyl carbonate]
[1]
Settings | mass density [kg/m3] | viscosity [mPa·s]
293.15 K | 1069.7 | 0.629
298.15 K | 1063.1 | 0.59
303.15 K | 1056.4 | 0.555
308.15 K | 1049.7 | 0.525
313.15 K | 1043.1 | 0.495
318.15 K | 1036.4 | 0.475
323.15 K | 1029.6 | 0.446
328.15 K | 1022.8 | 0.425

COC(=O)OC [dimethyl carbonate] + CCCCn1cc[n+](C)c1C.O=S(=O)([N-]S(=O)(=O)C(F)(F)F)C(F)(F)F
[2]
Settings | mass density [kg/m3] | viscosity [mPa·s]
293.15 K | 1069.7 | 0.629
298.15 K | 1063.1 | 0.59
303.15 K | 1056.4 | 0.555
308.15 K | 1049.7 | 0.525
313.15 K | 1043.1 | 0.495
318.15 K | 1036.4 | 0.475
323.15 K | 1029.6 | 0.446
328.15 K | 1022.8 | 0.425

COC(=O)OC [dimethyl carbonate] + CCn1cc[n+](C)c1C.O=S(=O)([N-]S(=O)(=O)C(F)(F)F)C(F)(F)F
[2]
Settings | mass density [kg/m3] | viscosity [mPa·s]
293.15 K | 1069.7 | 0.629
298.15 K | 1063.1 | 0.59
303.15 K | 1056.4 | 0.555
308.15 K | 1049.7 | 0.525
313.15 K | 1043.1 | 0.495
318.15 K | 1036.4 | 0.475
323.15 K | 1029.6 | 0.446
328.15 K | 1022.8 | 0.425
